Measured values published in patent US9995734B2, “Human T cell line assay for evaluating the immunologic identity of glatiramer acetate preparations” (Mylan Inc., priority 2013, dated 2018).
Several values for one entry are separate records, joined by “and”; a condition that tells them apart may be missing. Identical values can stand only once.

Tests used:
Format in all cases: cell-based, human
Donor 3 COP T-Cell Lines = assay: ATP proliferation assay (CellTiter Glo), Donor 3 COP T-cell lines, incl. reactivity to non-canonical GA peptides; conditions: for Non-Canonical Peptide Non-Reactivity: proliferation <2 times no antigen control
Donor 3 GMA T-Cell Lines = assay: ATP proliferation assay (CellTiter Glo), Donor 3 GMA T-cell lines, incl. reactivity to non-canonical GA peptides; conditions: Day 50 of culturing
Donor 1 COP T-Cell Lines = assay: Multiplex bead cytokine assay (FlowCytoMix), Donor 1 COP T-cell lines; conditions: 222-2D8, 222-1H12, 222-2F12; Day 56; 48 hours; 1, 3, 10 μg/mL
Description: Culture medium was removed from cultures prepared as for proliferation assay and utilized to measure cytokine production. In most cases culture medium was collected 18-24 hours after mixing T-cells, APC, and stimulating antigen. Cytokine production was measured by ELISA or bead assay. For measuring cytokine production, 100-150 μL culture medium (100 μL if culture was to be continued, otherwise 150 μL) was removed from each well. In some cases, the culture was continued 48 hours, for a total of 72 hours of culture, and the proliferative response measured.
The concentration of multiple cytokines was measured simultaneously using FlowCytoMix™ kits (eBioscience, San Diego Calif.). These are fluorescent bead based assays consisting of beads conjugated to anti cytokine antibodies. Beads specific for each cytokine are distinguished by size and fluorescence at 670 run. Cytokine bound to each bead is detected using a phycoerythrin conjugated antibody so that the fluorescence at 585 nm reflects the concentration of cytokine in the sample. Two kits were utilized which measured different cytokine panels. The TH1/TH2 kit measures IFN-γ, IL-1β, IL-2, IL-4, IL-5, IL-6, IL-8, IL-10, IL-12p70, TNF-α (TNF) and TNF-β (LT). The TH1/TH2/TH9/TH17/TH22 kit measures […], IL-1β, IL-2, IL-4, IL-5, IL-6, IL-9, IL-10, IL-12p70, IL-13, IL-17, IL-22, and TNF-α (TNF). Both kits were used following the manufacturer's instructions.
IL-12p70, IFN-γ, IL-2, IL-10, IL-8, IL-6, IL-5, IL-4, IL-1β, TNF-α (TNF), and TNF-β (LT) secretion were measured in response to stimulation with 1, 3, or 10 μg/mL GMA, or 1, 3, or 10 μg/mL COP, as well as a no-antigen control and an MBP control, in the presence of autologous EBV-transformed B-LCL.

Donor 4 COP T-Cell Lines = assay: ATP proliferation assay (CellTiter Glo), Donor 4 COP T-cell lines, incl. reactivity to non-canonical GA peptides; conditions: for Non-Canonical Peptide Non-Reactivity: proliferation <2 times no antigen control; for Proliferation (luminescent ATP assay), Mean: T-cell line 205-1F4, Day 71, autologous B-LCL; for Reactivity (proliferation), Mean: T-cell line 205-1H3, 0 μg/mL 4121.0

Substance: EKPKVEAYKAAAAPA [STERN]
- proliferation response to non-canonical peptides (Donor 3 COP T-Cell Lines; 165-E3C, separate experiment): did not react
- Proliferation (luminescent ATP assay), Mean (Donor 3 GMA T-Cell Lines; T-cell line 165-05G, 1 μg/mL antigen, No Antigen Value 2149): 1750 RLU
- Proliferation (luminescent ATP assay), Mean (Donor 3 GMA T-Cell Lines; T-cell line 165-05G, 3 μg/mL antigen, No Antigen Value 2149): 1606 RLU
- Proliferation (luminescent ATP assay), Mean (Donor 3 GMA T-Cell Lines; T-cell line 165-05G, 10 μg/mL antigen, No Antigen Value 2149): 1650 RLU
- Proliferation (luminescent ATP assay), Mean (Donor 3 GMA T-Cell Lines; T-cell line 165-05G, 30 μg/mL antigen, No Antigen Value 2149): 1572 RLU
- Proliferation (luminescent ATP assay), Mean (Donor 3 GMA T-Cell Lines; T-cell line 165-E9G, 1 μg/mL antigen, No Antigen Value 1742): 1673 RLU
- Proliferation (luminescent ATP assay), Mean (Donor 3 GMA T-Cell Lines; T-cell line 165-E9G, 3 μg/mL antigen, No Antigen Value 1742): 1480 RLU
- Proliferation (luminescent ATP assay), Mean (Donor 3 GMA T-Cell Lines; T-cell line 165-E9G, 30 μg/mL antigen, No Antigen Value 1742): 1487 RLU
- Proliferation (luminescent ATP assay), Mean (Donor 3 GMA T-Cell Lines; T-cell line 165-E9G, 10 μpg/mL antigen, No Antigen Value 1742): 1471 RLU
- Proliferation (luminescent ATP assay), Mean (Donor 3 GMA T-Cell Lines; T-cell line 165-F10G, 1 μg/mL antigen, No Antigen Value 3752): 2465 RLU
- Proliferation (luminescent ATP assay), Mean (Donor 3 GMA T-Cell Lines; T-cell line 165-F10G, 3 μg/mL antigen, No Antigen Value 3752): 2389 RLU
- Proliferation (luminescent ATP assay), Mean (Donor 3 GMA T-Cell Lines; T-cell line 165-F10G, 10 μg/mL antigen, No Antigen Value 3752): 2030 RLU
- Proliferation (luminescent ATP assay), Mean (Donor 3 GMA T-Cell Lines; T-cell line 165-F10G, 30 μg/mL antigen, No Antigen Value 3752): 2583 RLU
- Proliferation (luminescent ATP assay), Mean (Donor 3 GMA T-Cell Lines; T-cell line 165-H11G, 1 μg/mL antigen, No Antigen Value 1485): 2279 RLU
- Proliferation (luminescent ATP assay), Mean (Donor 3 GMA T-Cell Lines; T-cell line 165-H11G, 3 μg/mL antigen, No Antigen Value 1485): 2118 RLU
- Proliferation (luminescent ATP assay), Mean (Donor 3 GMA T-Cell Lines; T-cell line 165-H11G, 10 μg/mL antigen, No Antigen Value 1485): 2418 RLU
- Proliferation (luminescent ATP assay), Mean (Donor 3 GMA T-Cell Lines; T-cell line 165-H11G, 30 μg/mL antigen, No Antigen Value 1485): 2296 RLU

Substance: L-glutamic acid polymer with L-alanine, L-lysine and L-tyrosine, acetate (salt) [GA]
- cytokine secretion, dose comparison (Donor 1 COP T-Cell Lines): highest levels of cytokines

Substance: poly (Glu-Ala; 6:4) [GA 64]
- Non-Canonical Peptide Non-Reactivity (Donor 3 COP T-Cell Lines; 165-C4C): GA64
- Non-Canonical Peptide Non-Reactivity (Donor 3 COP T-Cell Lines; 165-F3C): GA 64
- Non-Canonical Peptide Non-Reactivity (Donor 3 COP T-Cell Lines; 165-F6C): GA64
- Nonreactive T-Cell Line (Donor 3 COP T-Cell Lines; Donor 3 COP lines, stimulation with the non-canonical GA peptide): 165-C4C (Donor 3) and 165-F3C (Donor 3) and 165-F6C (Donor 3)
- Proliferation (luminescent ATP assay), Mean (Donor 3 COP T-Cell Lines; T-cell line 165-C4C, 1 μg/mL antigen, Day 66 of culture, 0 μg/mL 1881): 2205
- Proliferation (luminescent ATP assay), Mean (Donor 3 COP T-Cell Lines; T-cell line 165-C4C, 3 μg/mL antigen, Day 66 of culture, 0 μg/mL 1881): 2229
- Proliferation (luminescent ATP assay), Mean (Donor 3 COP T-Cell Lines; T-cell line 165-C4C, 10 μg/mL antigen, Day 66 of culture, 0 μg/mL 1881): 2244
- Proliferation (luminescent ATP assay), Mean (Donor 3 COP T-Cell Lines; T-cell line 165-F3C, 1 μg/mL antigen, Day 77 of culture, 0 μg/mL 1563): 1791
- Proliferation (luminescent ATP assay), Mean (Donor 3 COP T-Cell Lines; T-cell line 165-F3C, 3 μg/mL antigen, Day 77 of culture, 0 μg/mL 1563): 1943
- Proliferation (luminescent ATP assay), Mean (Donor 3 COP T-Cell Lines; T-cell line 165-F3C, 10 μg/mL antigen, Day 77 of culture, 0 μg/mL 1563): 1870
- Non-Canonical Peptide Non-Reactivity (Donor 4 COP T-Cell Lines; 205-1F4): GA 64
- Non-Canonical Peptide Non-Reactivity (Donor 4 COP T-Cell Lines; 205-1H3): GA 64
- Nonreactive T-Cell Line (Donor 4 COP T-Cell Lines; Donor 4 COP lines, stimulation with the non-canonical GA peptide): 205-1F4 (Donor 4) and 205-1H3 (Donor 4)
- Proliferation (luminescent ATP assay), Mean (Donor 4 COP T-Cell Lines; 1 μg/mL antigen): 2544
- Proliferation (luminescent ATP assay), Mean (Donor 4 COP T-Cell Lines; 3 μg/mL antigen): 2261
- Proliferation (luminescent ATP assay), Mean (Donor 4 COP T-Cell Lines; 10 μg/mL antigen): 2080
- Reactivity (proliferation), Mean (Donor 4 COP T-Cell Lines; 1 μg/mL antigen): 4012.0
- Reactivity (proliferation), Mean (Donor 4 COP T-Cell Lines; 3 μg/mL antigen): 4246.0
- Reactivity (proliferation), Mean (Donor 4 COP T-Cell Lines; 10 μg/mL antigen): 2054.3
